Active and inactive are the calls of the source. No cut-off for these calls is given here. Bounds are passed on as bounds.

Here are results for 14 compounds from ChEMBL document CHEMBL1687942, “Benzimidazole inhibitors induce a DFG-out conformation of never in mitosis gene A-related kinase 2 (Nek2) without binding to the back pocket and reveal a nonlinear structure-activity relationship” (J Med Chem, 2011).

Series [1] has as its target T1, Serine/threonine-protein kinase PLK1 (Homo sapiens, UniProt P53350). The series is described as follows: Inhibition of polo-like kinase 1 activity.
Series [2] in a line: Apparent permeability of the compound by PAMPA at pH 7.4. In general terms: The PAMPA barrier holds no transporters, so it reflects passive diffusion.
Series [3] has as its target T2, Serine/threonine-protein kinase Nek2 (Homo sapiens, UniProt P51955).
T2 sequence (P51955 whole entry): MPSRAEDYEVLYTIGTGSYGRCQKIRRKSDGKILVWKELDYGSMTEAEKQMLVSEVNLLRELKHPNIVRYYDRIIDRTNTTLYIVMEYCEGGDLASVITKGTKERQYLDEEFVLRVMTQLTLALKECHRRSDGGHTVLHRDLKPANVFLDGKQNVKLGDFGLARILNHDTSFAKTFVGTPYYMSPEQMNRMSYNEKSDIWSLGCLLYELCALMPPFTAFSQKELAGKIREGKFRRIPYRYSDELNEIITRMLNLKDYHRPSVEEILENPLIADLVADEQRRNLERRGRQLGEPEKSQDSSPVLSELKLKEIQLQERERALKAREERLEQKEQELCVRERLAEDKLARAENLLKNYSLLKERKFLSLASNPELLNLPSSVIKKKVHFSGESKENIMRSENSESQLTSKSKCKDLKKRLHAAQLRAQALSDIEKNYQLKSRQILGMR

Series [4] deals with T1, Serine/threonine-protein kinase PLK1. Particulars: 200 uM.
Description: Inhibition of polo-like kinase 1 activity at 200 uM
Series [5] deals with T2, Serine/threonine-protein kinase Nek2. The series is described as follows: Inhibition of NEK2 autophosphorylation preincubated with compound by DELFIA assay.
For series [6] the target is unchanged. The series is described as follows: Inhibition of NEK2 assessed as inhibition of substrate phosphorylation preincubated for 5 mins before addition of substrate by DELFIA assay.
Series [7] has as its target Tyrosine-protein kinase ABL1 (Mus musculus) (UniProt P00520). The series is described as follows: Inhibition of mouse Abl at 2 uM.
The target of series [8] is T1, Serine/threonine-protein kinase PLK1. Briefly: Inhibition of polo-like kinase 1 activity at 100 uM.
In series [9] the target is T3, Serine/threonine-protein kinase Nek2 (Homo sapiens) (UniProt P51955).
T3 sequence (whole entry): T2 sequence (P51955 whole entry)
Briefly: Inhibition of NEK2 at 200 uM.

T1 sequence (P53350 whole entry, the tested form may be a part): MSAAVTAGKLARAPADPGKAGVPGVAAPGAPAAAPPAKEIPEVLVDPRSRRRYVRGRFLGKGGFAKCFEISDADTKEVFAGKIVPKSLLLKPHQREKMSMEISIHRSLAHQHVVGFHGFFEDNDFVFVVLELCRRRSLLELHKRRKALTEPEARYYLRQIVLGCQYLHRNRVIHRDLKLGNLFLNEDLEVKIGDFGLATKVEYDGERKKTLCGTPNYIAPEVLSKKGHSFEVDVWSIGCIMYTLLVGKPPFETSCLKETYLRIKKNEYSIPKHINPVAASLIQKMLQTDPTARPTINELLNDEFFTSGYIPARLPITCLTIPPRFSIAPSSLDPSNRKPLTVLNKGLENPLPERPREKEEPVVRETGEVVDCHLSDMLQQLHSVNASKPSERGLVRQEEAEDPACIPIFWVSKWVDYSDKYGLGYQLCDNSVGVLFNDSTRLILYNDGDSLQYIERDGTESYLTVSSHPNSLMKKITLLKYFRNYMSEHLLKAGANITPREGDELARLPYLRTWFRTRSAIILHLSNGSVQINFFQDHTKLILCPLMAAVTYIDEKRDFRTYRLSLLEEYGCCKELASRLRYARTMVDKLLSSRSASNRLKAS
Chain of Tyrosine-protein kinase ABL1 (Mus musculus) (P00520 whole entry): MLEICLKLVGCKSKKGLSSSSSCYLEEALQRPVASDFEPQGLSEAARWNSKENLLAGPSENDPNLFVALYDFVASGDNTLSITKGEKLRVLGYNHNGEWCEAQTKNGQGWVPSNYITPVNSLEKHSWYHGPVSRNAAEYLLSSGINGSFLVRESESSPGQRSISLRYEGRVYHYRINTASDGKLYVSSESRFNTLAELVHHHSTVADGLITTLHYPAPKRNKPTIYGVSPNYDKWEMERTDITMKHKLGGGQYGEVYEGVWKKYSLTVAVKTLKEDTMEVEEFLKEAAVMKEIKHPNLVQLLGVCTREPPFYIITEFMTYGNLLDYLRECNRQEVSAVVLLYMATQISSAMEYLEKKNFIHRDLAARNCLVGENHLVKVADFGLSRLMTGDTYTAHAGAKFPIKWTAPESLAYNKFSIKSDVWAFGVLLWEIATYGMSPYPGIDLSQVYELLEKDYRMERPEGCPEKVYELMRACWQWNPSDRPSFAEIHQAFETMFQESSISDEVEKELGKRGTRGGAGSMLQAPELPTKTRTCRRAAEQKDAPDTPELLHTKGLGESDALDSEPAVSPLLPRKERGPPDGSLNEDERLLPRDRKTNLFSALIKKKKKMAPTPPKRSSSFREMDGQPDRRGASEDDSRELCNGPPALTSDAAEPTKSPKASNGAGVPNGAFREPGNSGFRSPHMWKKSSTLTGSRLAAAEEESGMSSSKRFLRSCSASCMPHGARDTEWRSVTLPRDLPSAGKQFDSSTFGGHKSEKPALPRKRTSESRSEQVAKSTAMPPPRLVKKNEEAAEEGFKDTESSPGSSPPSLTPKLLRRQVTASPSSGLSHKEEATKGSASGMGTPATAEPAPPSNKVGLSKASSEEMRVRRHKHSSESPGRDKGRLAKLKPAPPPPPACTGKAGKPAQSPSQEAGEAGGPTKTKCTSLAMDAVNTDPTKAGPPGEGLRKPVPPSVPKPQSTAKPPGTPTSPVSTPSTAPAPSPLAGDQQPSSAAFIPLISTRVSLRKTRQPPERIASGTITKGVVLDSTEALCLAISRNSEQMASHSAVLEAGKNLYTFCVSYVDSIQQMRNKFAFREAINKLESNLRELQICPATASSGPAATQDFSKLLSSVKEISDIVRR

For `CN1CCC(Oc2ccc3ncn(-c4cc(OCc5ccccc5C(F)(F)F)c(C(N)=O)s4)c3c2)CC1`, the IC50 in series [1] was < 0.009 µM.
Turning to `C[C@@H](Oc1cc(-n2cnc3cc(OC4CCN(C)CC4)ccc32)ccc1C(N)=O)c1ccccc1C(F)(F)F`, the Papp in [2] amounted to 33.4 ×10⁻⁶ cm/s. Besides, 51.3 µM corresponded to half-maximal inhibition in [1] (IC50).
For `CN1CCC(Oc2ccc3ncn(-c4cc(OCc5ccccc5)c(C(N)=O)s4)c3c2)CC1`, the IC50 came to 0.069 µM in series [1] and 5.43 µM in [3].
As to `COc1cc(-n2cnc3ccc(OC4CCN(C)CC4)cc32)sc1C(N)=O`, the IC50 in [1] turned out to be 1.33 µM; in [3] it was 64.4 µM.
Turning to `COc1cc(-n2cnc3ccccc32)sc1C(N)=O`, the IC50 in [1] was found to be 5.31 µM; in series [3], 86 µM.
Turning to `C[C@H](Oc1cc(-n2cnc3cc(OC4CCN(C)CC4)ccc32)ccc1C(N)=O)c1ccccc1C(F)(F)F`, the inhibition entry in series [4] was “inactive”.
Consider `CC(Oc1cc(-n2cnc3ccc(OC4CCN(C)CC4)cc32)sc1C(N)=O)c1ccccc1C(F)(F)F` (racemic), for which the IC50 in [5] is 0.05 µM; in [6], 0.2 µM.
Take `CC(Oc1cc(-n2cnc3ccc(OC4CCN(C)CC4)cc32)sc1C(N)=O)c1ccccc1` (racemic): the IC50 was 0.066 µM in series [1] and 6.57 µM in series [3].
For `CC(Oc1cc(-n2cnc3ccccc32)sc1C(N)=O)c1ccccc1C(F)(F)F` (racemic) the same measures were < 0.009 µM and > 50 µM.
Regarding `CC(Oc1cc(-n2cnc3ccc(OC4CCN(C)CC4)cc32)ccc1C(N)=O)c1ccccc1C(F)(F)F` (racemic), the half-maximal inhibitory concentration (IC50) in series [1] turned out to be 0.19 µM; in series [3], 0.66 µM.
As for `CC(Oc1cc(-n2cnc3cc(OC4CCN(C)CC4)ccc32)ccc1C(N)=O)c1ccccc1C(F)(F)F` (racemic), the IC50 in series [1] came to 87.9 µM. The inhibition entry in series [7] was “Active”.
For `CC(Oc1cc(-n2cnc3cc(OCCCN(C)C)ccc32)ccc1C(N)=O)c1ccccc1C(F)(F)F` (racemic), the IC50 in series [1] was determined as 15.2 µM; in series [3], 0.38 µM.
As to `CC(Oc1cc(-n2cnc3cc(OC4CCN(C5CC5)CC4)ccc32)ccc1C(N)=O)c1ccccc1C(F)(F)F` (racemic), the inhibition entry in [8] is “inactive”. Also, in series [3], the IC50 was 2.56 µM.
Turning to `CC(Oc1cc(-n2cnc3cc(OC4CCCCC4)ccc32)ccc1C(N)=O)c1ccccc1C(F)(F)F` (racemic), the inhibition result in series [8] and in series [9] was “inactive” throughout.

In general, IC50 refers to the concentration that gives 50% inhibition. The Papp is the rate of passage across a membrane or cell layer, normalised by area and donor concentration.
